Consider eight molecules from ChEMBL document CHEMBL6153063 (Eur J Med Chem, 2025).

Active and inactive are the calls of the source. No cut-off for these calls is given here.

Assay [1] concerns the target Apoptosis regulator Bcl-2 (Homo sapiens, UniProt P10415). The assay can be described thus: Binding affinity to Bcl-2 (unknown origin) assessed as dissociation constant incubated for 1 hr by KINOMEscan assay.
For assay [2], the target named is T1, Receptor-type tyrosine-protein kinase FLT3 (Homo sapiens, UniProt P36888).
T1 sequence (P36888 whole entry): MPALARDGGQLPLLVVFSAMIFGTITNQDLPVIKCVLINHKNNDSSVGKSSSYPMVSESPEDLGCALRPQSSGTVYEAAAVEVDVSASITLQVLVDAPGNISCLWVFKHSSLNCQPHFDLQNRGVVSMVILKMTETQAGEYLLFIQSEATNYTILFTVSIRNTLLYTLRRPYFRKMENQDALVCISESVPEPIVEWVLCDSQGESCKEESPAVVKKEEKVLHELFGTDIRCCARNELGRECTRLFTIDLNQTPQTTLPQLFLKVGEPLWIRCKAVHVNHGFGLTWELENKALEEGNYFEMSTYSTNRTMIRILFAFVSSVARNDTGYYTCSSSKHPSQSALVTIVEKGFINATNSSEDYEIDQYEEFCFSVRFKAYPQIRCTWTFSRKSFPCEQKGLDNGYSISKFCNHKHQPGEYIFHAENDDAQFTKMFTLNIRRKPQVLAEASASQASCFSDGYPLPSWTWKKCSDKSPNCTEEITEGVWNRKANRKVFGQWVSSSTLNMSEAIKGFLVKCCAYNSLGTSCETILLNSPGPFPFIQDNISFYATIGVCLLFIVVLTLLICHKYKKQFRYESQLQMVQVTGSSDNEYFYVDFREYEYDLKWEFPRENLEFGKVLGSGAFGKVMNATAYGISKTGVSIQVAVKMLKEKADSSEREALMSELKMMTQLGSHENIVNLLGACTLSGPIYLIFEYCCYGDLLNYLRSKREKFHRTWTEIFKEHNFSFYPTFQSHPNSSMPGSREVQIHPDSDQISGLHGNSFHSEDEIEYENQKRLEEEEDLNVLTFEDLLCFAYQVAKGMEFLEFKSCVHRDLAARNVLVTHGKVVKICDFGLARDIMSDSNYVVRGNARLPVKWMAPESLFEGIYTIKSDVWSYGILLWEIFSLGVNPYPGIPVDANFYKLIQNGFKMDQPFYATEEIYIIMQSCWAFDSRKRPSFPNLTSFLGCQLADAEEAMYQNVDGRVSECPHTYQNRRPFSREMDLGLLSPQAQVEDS
Description: Binding affinity to FLT3 (unknown origin) assessed as dissociation constant incubated for 1 hr by KINOMEscan assay.

In assay [3] the test system is MV4-11. Description: Inhibition of cell viability in human MV4-11 cells incubated for 48 hrs by Alamar blue assay. Type of assay: functional, cell-based. Particulars: MV4-11, 48 h. For orientation: Resazurin is reduced to fluorescent resorufin, in cell work by metabolically active cells.
A short description of assay [4]: Inhibition of cell viability in human Venetoclax-resistant MV4-11 cells overexpressing Bcl-2 incubated for 48 hrs by Alamar blue assay. Type of assay: functional, cell-based. The note with it: Venetoclax-resistant MV4-11, 48 h.
Assay [5] has as its system MOLM-14. Description: Inhibition of cell viability in human MOLM-14 cells incubated for 48 hrs by Alamar blue assay. The note with it: MOLM-14, 48 h. Type of assay: functional, cell-based.
The nature of assay [6]: Inhibition of cell viability in human Gilteritinib-resistant MOLM-14 cells expressing FLT3 F691L mutant incubated for 48 hrs by Alamar blue assay. Type of assay: functional, cell-based. The note with it: Gilteritinib-resistant MOLM-14, 48 h.
Assay [7] deals with MV4-11. The assay can be described thus: Induction of apoptosis in human MV4-11 cells assessed as viable cells at 200 nM incubated for 48 hrs by Annexin V/7AAD staining based flow cytometry (reference value: 95.6 %). Type of assay: functional. The note with it: read-out: Activity. A general note: A flow cytometer gives signals particle by particle.
Assay [8] concerns MV4-11. Description: Induction of apoptosis in human MV4-11 cells assessed as early apoptotic cells at 200 nM incubated for 48 hrs by Annexin V/7AAD staining based flow cytometry (reference value: 2.3 %). Type of assay: functional.
Assay [9] deals with MV4-11. The assay can be described thus: Induction of apoptosis in human MV4-11 cells assessed as late apoptotic cells at 200 nM incubated for 48 hrs by Annexin V/7AAD staining based flow cytometry (reference value: 1.7 %). In kind it is functional.
In assay [10] the test system is Venetoclax-resistant MV4-11. The assay can be described thus: Induction of apoptosis in human Venetoclax-resistant MV4-11 cells overexpressing Bcl-2 upto 200 nM incubated for 48 hrs by Annexin V/7AAD staining based flow cytometry. Type of assay: functional, cell-based.
Assay [11] concerns Gilteritinib-resistant MOLM-14. The assay can be described thus: Induction of apoptosis in human Gilteritinib-resistant MOLM-14 cells expressing FLT3 F691L mutant upto 200 nM incubated for 48 hrs by Annexin V/7AAD staining based flow cytometry. Type of assay: functional, cell-based.
Assay [12] has as its system MV4-11. The assay can be described thus: Inhibition of cell viability in human MV4-11 cells incubated for 48 hrs in presence of VEN by Alamar blue assay. The note with it: MV4-11, 48 h.
Assay [13] has as its system MOLM-14. The assay can be described thus: Inhibition of cell viability in human MOLM-14 cells incubated for 48 hrs in presence of VEN by Alamar blue assay. The note with it: MOLM-14, 48 h.
Assay [14] deals with MV4-11. The assay can be described thus: Induction of apoptosis in human MV4-11 cells assessed as viable cells at 200 nM incubated for 48 hrs in presence of VEN by Annexin V/7AAD staining based flow cytometry (reference value: 95.6 %). Particulars: read-out: Activity. Type of assay: functional.
The subject of assay [15] is MV4-11. The assay can be described thus: Induction of apoptosis in human MV4-11 cells assessed as early apoptotic cells at 200 nM incubated for 48 hrs in presence of VEN by Annexin V/7AAD staining based flow cytometry (reference value: 2.3 %). Type of assay: functional.
Assay [16] relates to MV4-11. The assay can be described thus: Induction of apoptosis in human MV4-11 cells assessed as late apoptotic cells at 200 nM incubated for 48 hrs in presence of VEN by Annexin V/7AAD staining based flow cytometry (reference value: 1.7 %). Type of assay: functional.
The nature of assay [17]: cells. The note with it: Homo sapiens, Venetoclax-resistant MV4-11, 48 h.
The nature of assay [18]: cells. The note with it: Homo sapiens, Gilteritinib-resistant MOLM-14, 48 h.
Assay [19] deals with MV4-11. Description: Induction of apoptosis in human MV4-11 cells assessed as viable cells at 200 nM incubated for 48 hrs in presence of GIL by Annexin V/7AAD staining based flow cytometry (reference value: 95.6 %). Particulars: read-out: Activity. In kind it is functional.
Assay [20] relates to MV4-11. The assay can be described thus: Inhibition of cell viability in human MV4-11 cells incubated for 48 hrs in presence of GIL by Alamar blue assay. Particulars: MV4-11, 48 h.
The nature of assay [21]: Inhibition of cell viability in human Venetoclax-resistant MV4-11 cells overexpressing Bcl-2 incubated for 48 hrs in presence of GIL by Alamar blue assay. In kind it is functional, cell-based. The note with it: Venetoclax-resistant MV4-11, 48 h.
For assay [22], the system named is MOLM-14. Description: Inhibition of cell viability in human MOLM-14 cells incubated for 48 hrs in presence of GIL by Alamar blue assay. Particulars: MOLM-14, 48 h. Type of assay: functional, cell-based.
The nature of assay [23]: Inhibition of cell viability in human Gilteritinib-resistant MOLM-14 cells expressing FLT3 F691L mutant incubated for 48 hrs in presence of GIL by Alamar blue assay. In kind it is functional, cell-based. The note with it: Gilteritinib-resistant MOLM-14, 48 h.
The test system of assay [24] is MV4-11. Description: Induction of apoptosis in human MV4-11 cells assessed as early apoptotic cells at 200 nM incubated for 48 hrs in presence of GIL by Annexin V/7AAD staining based flow cytometry (reference value: 2.3 %). In kind it is functional.
Assay [25] relates to MV4-11. Description: Induction of apoptosis in human MV4-11 cells assessed as late apoptotic cells at 200 nM incubated for 48 hrs in presence of GIL by Annexin V/7AAD staining based flow cytometry (reference value: 1.7 %). In kind it is functional.

Chain of Apoptosis regulator Bcl-2 (P10415 whole entry): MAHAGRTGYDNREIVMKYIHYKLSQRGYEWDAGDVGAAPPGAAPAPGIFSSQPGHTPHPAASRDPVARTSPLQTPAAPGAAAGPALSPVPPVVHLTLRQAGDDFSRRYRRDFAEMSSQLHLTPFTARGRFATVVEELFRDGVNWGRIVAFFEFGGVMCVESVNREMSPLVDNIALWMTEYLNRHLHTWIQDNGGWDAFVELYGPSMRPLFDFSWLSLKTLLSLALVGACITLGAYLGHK

As a reminder, the Kd is the equilibrium constant for the complex coming apart. For orientation: IC50 means the point on the concentration scale where inhibition reaches its midpoint. With `CCc1nc(C(N)=O)c(Nc2ccc(N3CCN(C(=O)CNc4ccc(S(=O)(=O)NC(=O)c5ccc(N6CCN(CC7=C(c8ccc(Cl)cc8)CC(C)(C)CC7)CC6)cc5Oc5cnc6[nH]ccc6c5)cc4[N+](=O)[O-])CC3)c(OC)c2)nc1NC1CCOCC1`, the Kd in assay [1] was found to be 4.25 nM; in [2], 63 nM. Also, the half-inhibitory concentration (IC50) in [3] was 54.7 nM; in assay [4], 162 nM; in assay [5], 265 nM; in [6], 1700 nM. Moreover, the viability at 0.2 µM in assay [7] was 52.2%. Besides, the Activity is given as 18.6% in assay [8] and 27.9% in assay [9]. Besides, the result in [10] and in assay [11] was inactive.
As for `CCc1nc(C(N)=O)c(Nc2ccc(N3CCC(N4CCN(C(=O)CCCCCCNc5ccc(S(=O)(=O)NC(=O)c6ccc(N7CCN(CC8=C(c9ccc(Cl)cc9)CC(C)(C)CC8)CC7)cc6Oc6cnc7[nH]ccc7c6)cc5[N+](=O)[O-])CC4)CC3)c(OC)c2)nc1NC1CCOCC1`, the IC50 is 94 nM in assay [3], 907 nM in [4], 3330 nM in assay [5] and more than 10000 nM in assay [6].
As for `CCc1nc(C(N)=O)c(Nc2ccc(N3CCC(N4CCN(C(=O)CNc5ccc(S(=O)(=O)NC(=O)c6ccc(N7CCN(CC8=C(c9ccc(Cl)cc9)CC(C)(C)CC8)CC7)cc6Oc6cnc7[nH]ccc7c6)cc5[N+](=O)[O-])CC4)CC3)c(OC)c2)nc1NC1CCOCC1`, the Kd came to 0.91 nM in assay [1] and 205 nM in [2]. For the same molecule, the IC50 is 33.7 nM in assay [3], 209 nM in assay [4], 1070 nM in assay [5] and more than 10000 nM in assay [6]. For the same molecule, in assay [7], the viability at 0.2 µM is 30.7%. Further, the Activity in assay [8] is reported as 25.7%; in assay [9], 42.1%. Further, the outcome in assay [10] and in [11] was inactive.
Take `CCc1nc(C(N)=O)c(Nc2ccc(N3CCC(N4CCN(C)CC4)CC3)c(OC)c2)nc1NC1CCOCC1` [GILTERITINIB]: the IC50 stood at 14.7 nM in [3]; 53.7 nM in [4]; 25.7 nM in assay [5]; 128 nM in assay [6]; 2.6 nM in assay [12]; 16.4 nM in assay [13]. For the same molecule, the half-inhibitory concentration (IC50) in assay [17] worked out at 8.7 nM; in assay [18], 63.2 nM. Further, the viability at 0.2 µM in assay [14] amounted to 0.4%. Besides, the Activity in assay [15] is recorded as 31.1%; in assay [16] it was 66.9%.
Regarding `CC1(C)CCC(CN2CCN(c3ccc(C(=O)NS(=O)(=O)c4ccc(NCC5CCOCC5)c([N+](=O)[O-])c4)c(Oc4cnc5[nH]ccc5c4)c3)CC2)=C(c2ccc(Cl)cc2)C1` [VENETOCLAX], the IC50 in [4] is 756 nM; in assay [5], 1700 nM; in assay [6], 2010 nM; in assay [20], 2.6 nM; in assay [21], 8.7 nM; in [22], 16.4 nM. For the same molecule, the concentration for half-maximal inhibition (IC50) in assay [23] was found to be 63.2 nM. In addition, in assay [19], the viability at 0.2 µM amounted to 0.4%. Also, the Activity stood at 31.1% in assay [24] and 66.9% in assay [25].
For the molecule `CCc1nc(C(N)=O)c(Nc2ccc(N3CCN(C(=O)C4CCN(c5ccc(S(=O)(=O)NC(=O)c6ccc(N7CCN(CC8=C(c9ccc(Cl)cc9)CC(C)(C)CC8)CC7)cc6Oc6cnc7[nH]ccc7c6)cc5[N+](=O)[O-])CC4)CC3)c(OC)c2)nc1NC1CCOCC1`, the IC50 in assay [3] was 968 nM; in assay [4] it was 3220 nM; in [5], more than 10000 nM; in [6] it was more than 10000 nM.
In the case of `CCc1nc(C(N)=O)c(Nc2ccc(N3CCC(N4CCN(C(=O)C5CCN(c6ccc(S(=O)(=O)NC(=O)c7ccc(N8CCN(CC9=C(c%10ccc(Cl)cc%10)CC(C)(C)CC9)CC8)cc7Oc7cnc8[nH]ccc8c7)cc6[N+](=O)[O-])CC5)CC4)CC3)c(OC)c2)nc1NC1CCOCC1`, the IC50 is 1170 nM in [3], more than 10000 nM in assay [4], more than 10000 nM in [5] and more than 10000 nM in assay [6].
For the molecule `CCc1nc(C(N)=O)c(Nc2ccc(N3CCN(C(=O)CCCCCCNc4ccc(S(=O)(=O)NC(=O)c5ccc(N6CCN(CC7=C(c8ccc(Cl)cc8)CC(C)(C)CC7)CC6)cc5Oc5cnc6[nH]ccc6c5)cc4[N+](=O)[O-])CC3)c(OC)c2)nc1NC1CCOCC1`, the IC50 in [3] is 107 nM; in [4] it was 280 nM; in [5] it was 531 nM; in assay [6], 3280 nM.
